Data taken from patent publication US20240415819A1, “MACROCYCLIC COMPOUNDS AS PROTEASOME SUBUNIT BETA TYPE-5 INHIBITORS” (Lead Discovery Center GmbH, priority 2021, published 2024).

What was measured:
[1] = tested on: MM1 S (B lymphoblast cell line); assay: 48 hr CTG viability assay, MM1S; type: cell-based; conditions: Homo sapiens, 48 hr CTG, read-out: MM1S IC50
Summary of the method: (§1)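 Growth inhibition by compound over 48 h; IC50 (nM) derived from duplicate CellTiter-Glo luminescence readings across 0.0015–10 uM.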

[2] = tested on: RPMI 8226 (B lymphocyte cell line, multiple myeloma); assay: 48 hr CTG viability assay, RPMI 8226; type: cell-based; conditions: Homo sapiens, RPMI-8226; 48 hr CTG; read-out: RPMI-8226 IC50
Summary of the method: as §1

[3] = biological target: T1, β5 subunit of the human immunoproteasome (IPS) (Homo sapiens, UniProt P28062); assay: β5 inhibition assay, human immunoproteasome (Suc-LLVY-AMC); type: biochemical; conditions: IC50 class, Suc-LLVY-AMC substrate
T1 construct: purchased Boston Biochem E-370
Summary of the method: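 β5 activity is read as liberated AMC fluorescence (355/460 nm) after 4 h dark reaction at RT with 22.6 μM Suc-LLVY-AMC, stopped by 1 μM bortezomib. Beforehand, 1 nM human IPS and compound sat 10 min at RT in HEPES pH 7.5 buffer containing NaCl, 0.02% SDS and DTT.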

[4] = tested on: A549 (human lung carcinoma cell line); assay: Glo assay of A549 cells (Table 3; ProteasomeGlo plating scheme); type: cell-based; conditions: Homo sapiens; A549 cells; read-out: PGLo A549
Summary of the method: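 After acoustic compound transfer, plates incubate 105 min (37° C., 5% CO2). Proteasome-Glo reagent containing Suc-LLVY-Glo substrate is added, plates are shaken, then luminescence is measured after 10-15 min to derive IC50 [nM]. Staurosporine and DMSO serve as controls.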

[5] = tested on: Hs 746T (human gastric carcinoma cell line); assay: 48 hr CTG viability assay, Hs 746T; type: cell-based; conditions: Hs746T, 48 hr CTG, read-out: Hs 746T IC50
Summary of the method: as §1

[6] = biological target: T2, β5 subunit of the human constitutive proteasome (CPS) (Homo sapiens, UniProt P28074); assay: β5 inhibition assay, human constitutive proteasome (Suc-LLVY-AMC); type: biochemical; conditions: IC50 class, Suc-LLVY-AMC substrate
T2 construct: purchased Boston Biochem E-360
Experimental: The enzymatic activity of the β5 subunit of the human constitutive proteasome (CPS) is analyzed. In another assay, which differs from the assay of the human constitutive proteasome only in using the human immunoproteasome (IPS) the enzymatic activity of the β5 subunit of the human immunoproteasome (IPS) is analyzed. […] Inhibition is indicated as IC50 [nM] (“-”=not measured).

Compound	IC50 [1] [nM]	IC50 [2] [nM]	IC50 [3] [nM]	IC50 [4] [nM]	IC50 [5] [nM]	IC50 [6] [nM]
Cc1ccc2cc1CNC(=O)[C@H](CCc1ccccc1)NC(=O)[C@@H](NC(=O)CCNC1CC3(COC3)C1)CC(=O)N1CCCC(CCO2)C1 (stereo partly drawn) [Compound 720, 3-((2-oxaspiro[3.3]heptan-6-yl)amino)-N-((9S,12S)-5^4-methyl-8,11,14-trioxo-9-phenethyl-4-oxa-7,10-diaza-1(3,1)-piperidina-5(1,3)-benzenacyclotetradecaphane-12-yl)propanamide]	100 to 500	100 to 500	< 100	< 100	500 to 1000	< 100
Cc1ccc2cc1CNC(=O)[C@H](CCc1ccccc1)NC(=O)[C@@H](NC(=O)C1CC3(CNC3)C1)CC(=O)N1CCCC(CCO2)C1 (stereo partly drawn) [Compound 721, N-((9S,12S)-5^4-methyl-8,11,14-trioxo-9-phenethyl-4-oxa-7,10-diaza-1(3,1)-piperidina-5(1,3)-benzenacyclotetradecaphane-12-yl)-2-azaspiro[3.3]heptane-6-carboxamide]	< 100	100 to 500	< 100	100 to 500	< 100	< 100
Cc1ccc2cc1CNC(=O)[C@H](CCc1ccccc1)NC(=O)[C@@H](NC(=O)C(C)(C)CO)CCCC(=O)NCCCCO2 [Compound 722, 3-hydroxy-2,2-dimethyl-N-((12S,15S)-1^4-methyl-8,13,16-trioxo-15-phenethyl-2-oxa-7,14,17-triaza-1(1,3)-benzenacyclooctadecaphane-12-yl)propanamide]	100 to 500	100 to 500	< 100	100 to 500	500 to 1000	< 100
Cc1ccc2cc1CNC(=O)[C@H](CCc1ccccc1)NC(=O)[C@@H](NC(=O)C1CC3CCC(C1)N3)CC(=O)N1CCCC(CCO2)C1 (stereo partly drawn) [Compound 723, N-((9S,12S)-5^4-methyl-8,11,14-trioxo-9-phenethyl-4-oxa-7,10-diaza-1(3,1)-piperidina-5(1,3)-benzenacyclotetradecaphane-12-yl)-8-azabicyclo[3.2]octane-3-carboxamide]	100 to 500	100 to 500	< 100	< 100	100 to 500	< 100
Cc1ccc2cc1CNC(=O)[C@H](CCc1ccccc1)NC(=O)[C@@H](NC(=O)[C@@H](N)CCC(=O)O)CC(=O)N1CCCC(CCO2)C1 (stereo partly drawn) [Compound 724, (4S)-4-amino-5-(((9S,12S)-5^4-methyl-8,11,14-trioxo-9-phenethyl-4-oxa-7,10-diaza-1(3,1)-piperidina-5(1,3)-benzenacyclotetradecaphane-12-yl)amino)-5-oxopentanoic acid]	100 to 500	100 to 500	< 100	< 100	500 to 1000	< 100
Cc1ccc2cc1CNC(=O)[C@H](CCc1ccccc1)NC(=O)[C@@H](NC(=O)CCOC1CC3(CNC3)C1)CC(=O)N1CCCC(CCO2)C1 (stereo partly drawn) [Compound 725, 3-((2-azaspiro[3.3]heptan-6-yl)oxy)-N-((9S,12S)-5^4-methyl-8,11,14-trioxo-9-phenethyl-4-oxa-7,10-diaza-1(3,1)-piperidina-5(1,3)-benzenacyclotetradecaphane-12-yl)propanamide]	100 to 500	100 to 500	< 100	< 100	100 to 500	< 100
Cc1ccc2cc1CNC(=O)[C@H](CCc1ccccc1)NC(=O)[C@@H](NC(=O)C(C)(C)CO)CCC(=O)NCCCCO2 [Compound 726, 3-hydroxy-2,2-dimethyl-N-((11S,14S)-1^4_ methyl-8,12,15-trioxo-1^4-phenethyl-2-oxa-7,13,16-triaza-1(1,3)-benzenacycloheptadecaphane-11-yl)propanamide]	100 to 500	100 to 500	< 100	100 to 500	500 to 1000	< 100
Cc1ccc2cc1CNC(=O)[C@H](CCc1ccccc1)NC(=O)[C@@H](NCC(C)(C)N)CC(=O)N1CCCC(CCO2)C1 (stereo partly drawn) [Compound 727, (9S,12S)-12-((2-amino-2-methylpropyl)amino)-5^4-methyl-9-phenethyl-4-oxa-7,10-diaza-1(3,1)-piperidina-5(1,3)-benzenacyclotetradecaphane-8,11,14-trione]	500 to 1000	100 to 500	< 100	100 to 500	1000 to 5000	< 100
Cc1ccc2cc1CNC(=O)[C@H](CCc1ccccc1)NC(=O)[C@@H](N1CCCC1=O)CC(=O)N1CCCC(CCO2)C1 (stereo partly drawn) [Compound 728, (9S,12S)-5^4-methyl-12-(2-oxopyrrolidin-1-yl)-9-phenethyl-4-oxa-7,10-diaza-1(3,1)-piperidina-5(1,3)-benzenacyclotetradecaphane-8,11,14-trione]	100 to 500	100 to 500	100 to 500	500 to 1000	1000 to 5000	100 to 500
Cc1ccc2cc1CNC(=O)[C@H](CCc1ccncc1)NC(=O)[C@@H](NC(=O)C1(F)CCNCC1)CC(=O)N1CCCC(CCO2)C1 (stereo partly drawn) [Compound 729, 4-fluoro-N-((12S)-5^4-methyl-8,11,14-trioxo-9-(2-(pyridin-4-yl)ethyl)-4-oxa-7,10-diaza-1(3,1)-piperidina-5(1,3)-benzenacyclotetradecaphane-12-yl)piperidine-4-carboxamide]	100 to 500	100 to 500	< 100	< 100	100 to 500	< 100
Cc1ccc2cc1CNC(=O)[C@H](CCc1ccccc1)NC(=O)[C@@H](N1CCCC1)CC(=O)N1CCCC(CCO2)C1 (stereo partly drawn) [Compound 731, (9S,12S)-5^4-methyl-9-phenethyl-12-(pyrrolidin-1-yl)-4-oxa-7,10-diaza-1(3,1)-piperidina-5(1,3)-benzenacyclotetradecaphane-8,11,14-trione]	100 to 500	500 to 1000	< 100	1000 to 5000	1000 to 5000	100 to 500
Cc1ccc2cc1CNC(=O)[C@H](CCc1ccccc1)NC(=O)[C@@H](N1CCCCC1=O)CC(=O)N1CCCC(CCO2)C1 (stereo partly drawn) [Compound 734, (9S,12S)-5^4-methyl-12-(2-oxopiperidin-1-yl)-9-phenethyl-4-oxa-7,10-diaza-1(3,1)-piperidina-5(1,3)-benzenacyclotetradecaphane-8,11,14-trione]	1000 to 5000	1000 to 5000	100 to 500	1000 to 5000	> 5000	1000 to 5000
Cc1ccc2cc1CNC(=O)[C@H](CCc1ccccc1)NC(=O)[C@@H](NC(=O)C(C)(C)CO)CC(=O)NCCCO2 [Compound 736, 3-hydroxy-2,2-dimethyl-N-((9S,12S)-1^4_ methyl-7,10,13-trioxo-12-phenethyl-2-oxa-6,11,14-triaza-1(1,3)-benzenacyclopentadecaphane-9-yl)propanamide]	1000 to 5000	1000 to 5000	1000 to 5000	> 5000	> 5000	1000 to 5000
Cc1ccc2cc1CNC(=O)[C@H](CCc1ccncc1)NC(=O)[C@@H](NC(=O)Cc1ccccc1F)CC(=O)N1CCCC(CCO2)C1 (stereo partly drawn) [Compound 737, 2-(2-fluorophenyl)-N-((9S,12S)-5^4-methyl-8,11,14-trioxo-9-(2-(pyridin-4-yl)ethyl)-4-oxa-7,10-diaza-1(3,1)-piperidina-5(1,3)-benzenacyclotetradecaphane-12-yl)acetamide]	< 100	< 100	< 100	< 100	< 100	< 100
Cc1ccc2cc1CNC(=O)[C@H](CCN1C[C@@H]3C[C@H]1CO3)NC(=O)[C@@H](NC(=O)Cc1cn3ccsc3n1)CC(=O)N1CCCC(CCO2)C1 [Compound 739, N-((9S,12S)-9-(2-((1S,4S)-2-oxa-5-azabicyclo[2.2.1]heptan-5-yl)ethyl)-5^4-methyl-8,11,14-trioxo-4-oxa-7,10-diaza-1(3,1)-piperidina-5(1,3)-benzenacyclotetradecaphane-12-yl)-2-(imidazo[2,1-b]thiazol-6-yl)acetamide]	< 100	< 100	< 100	< 100	100 to 500	< 100
Cc1cn([C@H]2CC(=O)N3CCCC(CCOc4ccc(C)c(c4)CNC(=O)[C@H](CCc4ccccc4)NC2=O)C3)nn1 (stereo partly drawn) [Compound 740, (9S,12S)-5^4-methyl-12-(4-methyl-1H-1,2,3-triazol-1-yl)-9-phenethyl-4-oxa-7,10-diaza-1(3,1)-piperidina-5(1,3)-benzenacyclotetradecaphane-8,11,14-trione]	100 to 500	100 to 500	< 100	100 to 500	1000 to 5000	< 100
